Patent US7855166B2, “Sulfonylamino(thio)carbonyl compounds” (Bayer Cropscience GmbH, priority 2005, dated 2010)

Key:
[1] = test system: weed plants such as Sinapis alba, Chrysanthemum segetum, Avena sativa, Stellaria media, Echinochloa crus-galli, Lolium multiflorum, Setaria viridis, Abutilon …; assay: Pre-emergence effect on weeds (greenhouse pot test, visual scoring); type: in vivo; conditions: applied pre-emergence at a rate of 0.3 kg or less of active substance per hectare; scored after 3 to 4 weeks in comparison to untreated controls
[2] = test system: weed plants such as Sinapis alba, Echinochloa crus-galli, Lolium multiflorum, Chrysanthemum segetum, Setaria viridis, Abutilon theophrasti, Amaranthus …; assay: Post-emergence effect on weeds (greenhouse pot test, visual scoring); type: in vivo; conditions: applied post-emergence (three-leaf stage) at a rate of 0.3 kg or less of active substance per hectare; scored after about 3 to 4 weeks in comparison to untreated controls

Compound	herbicidal action against weed plants (visual scoring of plant damage or emergence damage) [1]	herbicidal action against weed plants (effect scored visually) [2]
CCOc1nn(C(=O)NS(=O)(=O)c2cc(C)c(C)cc2I)c(=O)n1C [Compound 1.863]	very good herbidical action	very good herbicidal action
CCCOc1nn(C(=O)NS(=O)(=O)c2c(I)cccc2OC)c(=O)n1C1CC1 [Compound 1.204]	very good herbidical action	very good herbicidal action
CCCOc1nn(C(=O)NS(=O)(=O)c2c(I)cccc2OC)c(=O)n1C [Compound 1.195]	very good herbidical action	very good herbicidal action
CCOc1nn(C(=O)NS(=O)(=O)c2c(I)cccc2OC(F)F)c(=O)n1C1CC1 [Compound 1.470]	very good herbidical action	very good herbicidal action
COc1ccc(Cl)c(I)c1S(=O)(=O)NC(=O)n1nc(OC)n(C)c1=O [Compound 1.816]	very good herbidical action	very good herbicidal action
CCCOc1cccc(I)c1S(=O)(=O)NC(=O)n1nc(OC)n(C2CC2)c1=O [Compound 1.238]	very good herbidical action	very good herbicidal action
CCCOc1nn(C(=O)NS(=O)(=O)c2c(I)cccc2OC(F)F)c(=O)n1C1CC1 [Compound 1.473]	very good herbidical action	very good herbicidal action
COc1ccc(Cl)c(I)c1S(=O)(=O)NC(=O)n1nc(OC)n(C2CC2)c1=O [Compound 1.820]	very good herbidical action	very good herbicidal action
CCOc1nn(C(=O)NS(=O)(=O)c2c(I)cccc2C(F)(F)F)c(=O)n1C [Compound 1.136]	very good herbidical action	very good herbicidal action
CCOc1nn(C(=O)NS(=O)(=O)c2c(C)cccc2I)c(=O)n1C [Compound 1.038]	very good herbidical action	very good herbicidal action
CC(C)Oc1nn(C(=O)NS(=O)(=O)c2c(I)cccc2OS(=O)(=O)N(C)C)c(=O)n1C [Compound 1.752]	very good herbidical action	very good herbicidal action
COc1nn(C(=O)NS(=O)(=O)c2c(Cl)ccc(Cl)c2I)c(=O)n1C [Compound 1.849]	very good herbidical action	very good herbicidal action
CC(C)Oc1nn(C(=O)NS(=O)(=O)c2c(Cl)cc(C(F)(F)F)cc2I)c(=O)n1C [Compound 1.845]	very good herbidical action	very good herbicidal action
CCCCOc1cccc(I)c1S(=O)(=O)NC(=O)n1nc(OC(C)C)n(C)c1=O [Compound 1.276]	very good herbidical action	very good herbicidal action
CSc1cccc(I)c1S(=O)(=O)NC(=O)n1nc(OC(C)C)n(C)c1=O [Compound 1.582]	very good herbidical action	very good herbicidal action
COc1nn(C(=O)NS(=O)(=O)c2c(Cl)ccc(Cl)c2I)c(=O)n1C1CC1 [Compound 1.853]	very good herbidical action	very good herbicidal action
CCOc1nn(C(=O)NS(=O)(=O)c2c(Cl)cc(C(F)(F)F)cc2I)c(=O)n1C1CC1 [Compound 1.847]	very good herbidical action	very good herbicidal action
CCCCOc1cccc(I)c1S(=O)(=O)NC(=O)n1nc(OCC)n(C)c1=O [Compound 1.274]	very good herbidical action	very good herbicidal action
CCCOc1nn(C(=O)NS(=O)(=O)c2c(I)cccc2OCC2CC2)c(=O)n1C [Compound 1.350]	very good herbidical action	very good herbicidal action

Compound	herbicidal action against weed plants (visual scoring of plant damage or emergence damage) [1]	herbicidal action against weed plants (effect scored visually) [2]
CCOc1nn(C(=O)NS(=O)(=O)c2c(I)cccc2OC(C)C(F)(F)F)c(=O)n1C (stereo not shown) [Compound 1.525]	very good herbidical action	very good herbicidal action
CCOc1nn(C(=O)NS(=O)(=O)c2c(I)cccc2OS(C)(=O)=O)c(=O)n1C [Compound 1.712]	very good herbidical action	very good herbicidal action
CCCOc1nn(C(=O)NS(=O)(=O)c2c(I)cccc2SC)c(=O)n1C1CC1 [Compound 1.586]	very good herbidical action	very good herbicidal action
COc1nn(C(=O)NS(=O)(=O)c2ccc(Cl)cc2I)c(=O)n1C [Compound 1.869]	very good herbidical action	very good herbicidal action
COc1nn(C(=O)NS(=O)(=O)c2cc(C)c(C)cc2I)c(=O)n1C [Compound 1.862]	very good herbidical action	very good herbicidal action
COc1nn(C(=O)NS(=O)(=O)c2c(I)cccc2OC(F)F)c(=O)n1C [Compound 1.460]	very good herbidical action	very good herbicidal action
CCOc1nn(C(=O)NS(=O)(=O)c2c(I)cccc2OC(C)C)c(=O)n1C1CC1 [Compound 1.261]	very good herbidical action	very good herbicidal action
CC(C)Oc1nn(C(=O)NS(=O)(=O)c2c(I)cccc2C(F)(F)F)c(=O)n1C [Compound 1.138]	very good herbidical action	very good herbicidal action
CCOc1nn(C(=O)NS(=O)(=O)c2c(I)cccc2OS(=O)(=O)N(C)C)c(=O)n1C1CC1 [Compound 1.755]	very good herbidical action	very good herbicidal action
CCOc1cccc(I)c1S(=O)(=O)NC(=O)n1nc(OCC)n(C2CC2)c1=O [Compound 1.221]	very good herbidical action	very good herbicidal action
CCCOc1nn(C(=O)NS(=O)(=O)c2ccc(C)c(F)c2I)c(=O)n1C [Compound 1.857]	very good herbidical action	very good herbicidal action
CCCOc1nn(C(=O)NS(=O)(=O)c2ccc(F)cc2I)c(=O)n1C1CC1 [Compound 1.827]	very good herbidical action	very good herbicidal action
CCCOc1nn(C(=O)NS(=O)(=O)c2ccc(CCC)cc2I)c(=O)n1C1CC1 [Compound 1.882]	very good herbidical action	very good herbicidal action
CCCOc1nn(C(=O)NS(=O)(=O)c2c(I)cccc2OC(F)(F)F)c(=O)n1C [Compound 1.444]	very good herbidical action	very good herbicidal action
CC(C)Oc1nn(C(=O)NS(=O)(=O)c2c(I)cccc2OCC(F)F)c(=O)n1C [Compound 1.506]	very good herbidical action	very good herbicidal action
CCOc1nn(C(=O)NS(=O)(=O)c2ccc(C)c(F)c2I)c(=O)n1C [Compound 1.856]	very good herbidical action	very good herbicidal action
CCOc1nn(C(=O)NS(=O)(=O)c2c(I)cccc2OCC(F)(F)C(F)(F)F)c(=O)n1C1CC1 [Compound 1.555]	very good herbidical action	very good herbicidal action
CCOc1nn(C(=O)NS(=O)(=O)c2c(I)cccc2OC)c(=O)n1C [Compound 1.194]	very good herbidical action	very good herbicidal action
CCOc1nn(C(=O)NS(=O)(=O)c2ccc(C(F)(F)F)cc2I)c(=O)n1C1CC1 [Compound 1.891]	very good herbidical action	very good herbicidal action
